Test results: patent publication US8952024B2, “Herbicidal pyrimidone derivatives” (E I du Pont de Nemours and Company, priority 2009, dated 2015)

Key:
Type in all cases: in vivo
[1] = tested on: barnyardgrass (Echinochloa crus-galli); assay: Test A pre-/postemergence plant response
Source text: (§1) Seeds of barnyardgrass (Echinochloa crus-galli), large crabgrass (Digitaria sanguinalis), giant foxtail (Setaria faberii), morningglory (Ipomoea spp.), pigweed (Amaranthus retroflexus), velvetleaf (Abutilon theophrasti), wheat (Triticum aestivum) and corn (Zea mays) were planted into a blend of loam soil and sand and treated preemergence with a directed soil spray using test chemicals formulated in a non-phytotoxic solvent mixture which included a surfactant. At the same time these species were also treated with postemergence applications of test compounds formulated in the same manner.
(§2) Plants ranged in height from two to ten cm and were in the one- to two-leaf stage for the postemergence treatment. Treated plants and untreated controls were maintained in a greenhouse for approximately ten days, after which time all treated plants were compared to untreated controls and visually evaluated for injury. Plant response ratings, summarized in Table A, are based on a 0 to 100 scale where 0 is no effect and 100 is complete control. A dash (-) response means no test result.

corn (Zea mays) = assay: Test A pre-/postemergence plant response
Source text: as §1, §2

[2] = tested on: giant foxtail (Setaria faberii); assay: Test A pre-/postemergence plant response
Source text: as §1, §2

[3] = tested on: large crabgrass (Digitaria sanguinalis); assay: Test A pre-/postemergence plant response
Source text: as §1, §2

[4] = tested on: morningglory (Ipomoea spp.); assay: Test A pre-/postemergence plant response
Source text: as §1, §2

[5] = tested on: pigweed (Amaranthus retroflexus); assay: Test A pre-/postemergence plant response
Source text: as §1, §2

[6] = tested on: velvetleaf (Abutilon theophrasti); assay: Test A pre-/postemergence plant response
Source text: as §1, §2

[7] = tested on: wheat (Triticum aestivum); assay: Test A pre-/postemergence plant response
Source text: as §1, §2

[8] = tested on: barnyardgrass (Echinochloa crus-galli); assay: Test B flooded paddy test; settings: for Plant response rating, Barnyardgrass: Flood (flooded paddy test), 13 to 15 days; for Barnyardgrass plant response rating: Flood, 31 g ai/ha, scale 0 to 100 (0 no effect, 100 complete control); for Plant response rating, Flood, Barnyardgrass: 250 g ai/ha, flooded paddy test, visual rating on 0 to 100 scale (0 no effect, 100 complete control) after 13 to 15 days
Summary of the method: (§3)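 Plants were grown to the 2-leaf stage, then pots were flooded to 3 cm above the soil and compounds were applied directly into the paddy water. That depth was held throughout. After 13 to 15 days in a greenhouse, injury was visually rated against controls on a 0–100 scale.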

[9] = tested on: ducksalad (Heteranthera limosa); assay: Test B flooded paddy test; settings: for Plant response rating, Ducksalad: Flood (flooded paddy test), 13 to 15 days; for Ducksalad plant response rating: Flood, 31 g ai/ha, scale 0 to 100 (0 no effect, 100 complete control); for Plant response rating, Flood, Ducksalad: 250 g ai/ha, flooded paddy test, visual rating on 0 to 100 scale (0 no effect, 100 complete control) after 13 to 15 days
Summary of the method: as §3

rice (Oryza sativa) = assay: Test B flooded paddy test; settings: for Plant response rating, Rice: Flood (flooded paddy test), 13 to 15 days; for Rice plant response rating: Flood, 31 g ai/ha, scale 0 to 100 (0 no effect, 100 complete control); for Plant response rating, Flood, Rice: 250 g ai/ha, flooded paddy test, visual rating on 0 to 100 scale (0 no effect, 100 complete control) after 13 to 15 days
Summary of the method: as §3

[10] = tested on: umbrella sedge (Cyperus difformis); assay: Test B flooded paddy test; settings: for Plant response rating, Sedge, Umbrella: Flood (flooded paddy test), 13 to 15 days; for Sedge, Umbrella plant response rating: Flood, 31 g ai/ha, scale 0 to 100 (0 no effect, 100 complete control); for Plant response rating, Flood, Sedge, Umbrella: 250 g ai/ha, flooded paddy test, visual rating on 0 to 100 scale (0 no effect, 100 complete control) after 13 to 15 days
Summary of the method: as §3

[11] = Postemergence, 125 g ai/ha, 0 to 100 scale where 0 is no effect and 100 is complete control
[12] = Postemergence, 500 g ai/ha, visual injury, 0 to 100 scale (0 no effect, 100 complete control), approx. ten days
[13] = Preemergence, 125 g ai/ha, 0 to 100 scale, 0 = no effect, 100 = complete control
[14] = Preemergence, 500 g ai/ha, 0 to 100 scale, 0 = no effect, 100 = complete control
[15] = 125 g ai/ha, scale 0 to 100, 0 is no effect, 100 is complete control
[16] = Postemergence, 500 g ai/ha, 0 to 100 scale, 0 = no effect, 100 = complete control, approx. ten days
[17] = Preemergence, 500 g ai/ha, visual injury, 0 to 100 scale (0 no effect, 100 complete control), approx. ten days
[18] = 62 g ai/ha, scale of 0 to 100 where 0 is no effect and 100 is complete control

Cc1cc(F)ccc1-n1c(-c2cccc(Br)c2)ncc(C(=O)C2=C(O)CCCC2=O)c1=O [Compound 166]
Plant response rating, Barnyardgrass [1, 11]: 80
Barnyardgrass plant response rating [1, 12]: 100
Plant response rating, Barnyardgrass [1, 13]: 0
Plant response rating, Barnyardgrass [1, 14]: 20
Plant response rating, Corn (corn (Zea mays); [11]): 30
Corn plant response rating (corn (Zea mays); [12]): 40
Plant response rating, Corn (corn (Zea mays); [13]): 0
Plant response rating, Corn (corn (Zea mays); [14]): 0
Plant response rating, Foxtail, Giant [2, 11]: 60
Foxtail, Giant plant response rating [2, 12]: 90
Plant response rating, Foxtail, Giant [2, 13]: 0
Plant response rating, Foxtail, Giant [2, 14]: 20
Plant response rating, Crabgrass, Large [3, 11]: 40
Crabgrass, Large plant response rating [3, 12]: 90
Plant response rating, Crabgrass, Large [3, 13]: 10
Plant response rating, Crabgrass, Large [3, 14]: 70
Plant response rating, Morningglory [4, 11]: 100
Plant response rating, Morningglory [4, 13]: 0
Plant response rating, Morningglory [4, 14]: 0
Plant response rating, Pigweed [5, 11]: 70
Pigweed plant response rating [5, 12]: 100
Plant response rating, Pigweed [5, 13]: 0
Plant response rating, Pigweed [5, 14]: 40
Plant response rating, Velvetleaf [6, 11]: 100
Velvetleaf plant response rating [6, 12]: 100
Plant response rating, Velvetleaf [6, 13]: 40
Plant response rating, Velvetleaf [6, 14]: 100
Plant response rating, Wheat [7, 11]: 0
Wheat plant response rating [7, 12]: 0
Plant response rating, Wheat [7, 13]: 0
Plant response rating, Wheat [7, 14]: 0
Plant response rating, Barnyardgrass [8, 15]: 20
Barnyardgrass plant response rating [8]: 0
Plant response rating, Ducksalad [9, 15]: 60
Ducksalad plant response rating [9]: 0
Plant response rating, Rice (rice (Oryza sativa); [15]): 0
Rice plant response rating (rice (Oryza sativa)): 0
Plant response rating, Sedge, Umbrella [10, 15]: 70
Sedge, Umbrella plant response rating [10]: 50

O=C1CCCC(O)=C1C(=O)c1cnc(C2CCCCC2)n(-c2ccccc2)c1=O [Compound 106]
Plant response rating, Barnyardgrass [1, 11]: 10
Plant response rating, Barnyardgrass [1, 16]: 50
Plant response rating, Barnyardgrass [1, 13]: 10
Plant response rating, Barnyardgrass [1, 17]: 50
Plant response rating, Corn (corn (Zea mays); [11]): 0
Plant response rating, Corn (corn (Zea mays); [16]): 10
Plant response rating, Corn (corn (Zea mays); [13]): 0
Plant response rating, Corn (corn (Zea mays); [17]): 0
Plant response rating, Foxtail, Giant [2, 11]: 20
Plant response rating, Foxtail, Giant [2, 16]: 60
Plant response rating, Foxtail, Giant [2, 13]: 40
Plant response rating, Foxtail, Giant [2, 17]: 70
Plant response rating, Crabgrass, Large [3, 11]: 40
Plant response rating, Crabgrass, Large [3, 16]: 70
Plant response rating, Crabgrass, Large [3, 13]: 70
Plant response rating, Crabgrass, Large [3, 17]: 80
Plant response rating, Morningglory [4, 11]: 100
Plant response rating, Morningglory [4, 16]: 100
Plant response rating, Morningglory [4, 13]: 50
Plant response rating, Morningglory [4, 17]: 80
Plant response rating, Pigweed [5, 11]: 80
Plant response rating, Pigweed [5, 16]: 100
Plant response rating, Pigweed [5, 13]: 80
Plant response rating, Pigweed [5, 17]: 90
Plant response rating, Velvetleaf [6, 11]: 100
Plant response rating, Velvetleaf [6, 16]: 100
Plant response rating, Velvetleaf [6, 13]: 40
Plant response rating, Velvetleaf [6, 17]: 60
Plant response rating, Wheat [7, 11]: 0
Plant response rating, Wheat [7, 16]: 0
Plant response rating, Wheat [7, 13]: 0
Plant response rating, Wheat [7, 17]: 0
Plant response rating, Flood, Barnyardgrass [8]: 15
Plant response rating, Barnyardgrass [8, 18]: 0
Plant response rating, Barnyardgrass [8, 15]: 0
Barnyardgrass plant response rating [8]: 0
Plant response rating, Flood, Ducksalad [9]: 0
Plant response rating, Ducksalad [9, 18]: 0
Plant response rating, Ducksalad [9, 15]: 0
Ducksalad plant response rating [9]: 0
Plant response rating, Flood, Rice (rice (Oryza sativa)): 20
Plant response rating, Rice (rice (Oryza sativa); [18]): 0
Plant response rating, Rice (rice (Oryza sativa); [15]): 20
Rice plant response rating (rice (Oryza sativa)): 0
Plant response rating, Flood, Sedge, Umbrella [10]: 0
Plant response rating, Sedge, Umbrella [10, 18]: 0
Plant response rating, Sedge, Umbrella [10, 15]: 0
Sedge, Umbrella plant response rating [10]: 0

CCCc1ncc(C(=O)C2=C(O)CCCC2=O)c(=O)n1Cc1ccccc1 [Compound 103]
Plant response rating, Barnyardgrass [1, 11]: 30
Plant response rating, Barnyardgrass [1, 16]: 60
Plant response rating, Barnyardgrass [1, 13]: 0
Plant response rating, Barnyardgrass [1, 17]: 20
Plant response rating, Corn (corn (Zea mays); [11]): 0
Plant response rating, Corn (corn (Zea mays); [16]): 20
Plant response rating, Corn (corn (Zea mays); [13]): 0
Plant response rating, Corn (corn (Zea mays); [17]): 0
Plant response rating, Foxtail, Giant [2, 11]: 0
Plant response rating, Foxtail, Giant [2, 16]: 20
Plant response rating, Foxtail, Giant [2, 13]: 0
Plant response rating, Foxtail, Giant [2, 17]: 60
Plant response rating, Crabgrass, Large [3, 11]: 10
Plant response rating, Crabgrass, Large [3, 16]: 40
Plant response rating, Crabgrass, Large [3, 13]: 40
Plant response rating, Crabgrass, Large [3, 17]: 80
Plant response rating, Morningglory [4, 11]: 100
Plant response rating, Morningglory [4, 16]: 100
Plant response rating, Morningglory [4, 13]: 20
Plant response rating, Morningglory [4, 17]: 60
Plant response rating, Pigweed [5, 11]: 100
Plant response rating, Pigweed [5, 16]: 100
Plant response rating, Pigweed [5, 13]: 90
Plant response rating, Pigweed [5, 17]: 100
Plant response rating, Velvetleaf [6, 11]: 100
Plant response rating, Velvetleaf [6, 16]: 100
Plant response rating, Velvetleaf [6, 13]: 60
Plant response rating, Velvetleaf [6, 17]: 90
Plant response rating, Wheat [7, 11]: 0
Plant response rating, Wheat [7, 16]: 0
Plant response rating, Wheat [7, 13]: 0
Plant response rating, Wheat [7, 17]: 0
Plant response rating, Flood, Barnyardgrass [8]: 0
Plant response rating, Barnyardgrass [8, 18]: 0
Plant response rating, Barnyardgrass [8, 15]: 0
Barnyardgrass plant response rating [8]: 0
Plant response rating, Flood, Ducksalad [9]: 0
Plant response rating, Ducksalad [9, 18]: 0
Plant response rating, Ducksalad [9, 15]: 0
Ducksalad plant response rating [9]: 0
Plant response rating, Flood, Rice (rice (Oryza sativa)): 0
Plant response rating, Rice (rice (Oryza sativa); [18]): 0
Plant response rating, Rice (rice (Oryza sativa); [15]): 0
Rice plant response rating (rice (Oryza sativa)): 0
Plant response rating, Flood, Sedge, Umbrella [10]: 0
Plant response rating, Sedge, Umbrella [10, 18]: 0
Plant response rating, Sedge, Umbrella [10, 15]: 0
Sedge, Umbrella plant response rating [10]: 0
